Data from the NIST ThermoML archive (doi:10.1016/j.jct.2013.03.012).
± gives the expanded uncertainty stated by the source.

Conditions: for mass density: 101.33 kPa, Liquid, Levitation methods

## [Ti] [titanium]
1350 K
  mass density: 4235 ± 40 kg/m3
1400 K
  mass density: 4223 ± 40 kg/m3
1450 K
  mass density: 4211 ± 40 kg/m3
1500 K
  mass density: 4200 ± 40 kg/m3
1550 K
  mass density: 4188 ± 40 kg/m3
1600 K
  mass density: 4176 ± 40 kg/m3
1650 K
  mass density: 4164 ± 40 kg/m3
1668 K
  mass density: 4160 ± 40 kg/m3
1700 K
  mass density: 4152 ± 40 kg/m3
Crystal, Heating curve in electrostatic levitation apparatus
  Normal melting temperature: 1668.1 ± 2 °C
